Assay results as given in patent US11129845B2, “Compositions and methods for the delivery of nucleic acids” (CASE WESTERN RESERVE UNIVERSITY, priority 2014, dated 2021).

How the values were obtained:
MDA-MB-231 cells = test: MTT cytotoxicity with PTX after siRNA nanoparticles, MDA-MB-231; format: cell-based; details: Homo sapiens; MDA-MB-231, 0.5 ng/mL PTX 48 hours; combination: nanoparticles 48 hours first; read-out: cell viability (MTT)
Method: (§1) Cytotoxicity assays were performed in a 96-well plate as described previously, by seeding 2,000 MDA-MB-231 or MDA-MB-231.DR cells/well. […] Next, the wells were washed twice with PBS and incubation with various concentrations of PTX in fresh media. After 2 additional days, the MTT reagent (Invitrogen) was added to the cells for 4 hours followed by the addition of SDS-HCl and further incubation for 4 hours. The absorbance of each well was measured at 570 nm using a SpectraMax spectrophotometer (Molecular Devices). Cellular viability was calculated as the average of the set of triplicates for each PTX concentration and was normalized relative to the no treatment control. Drug resistance was confirmed with an MTT assay to determine the IC50 of paclitaxel. The IC50 was defined as the dose of drug required to inhibit cell viability by 50%.

MDA-MB-231.DR cells = test: MTT cytotoxicity with PTX after siRNA nanoparticles, MDA-MB-231.DR; format: cell-based; details: Homo sapiens, 0.5 ng/mL PTX 48 hours, combination: nanoparticles 48 hours first, read-out: cell viability (MTT)
Method: as §1

[1] = Zeta-potential of siRNA-lipid complexes (Malvern Zetasizer); format: physicochemical
Method: (§2) The cationic lipid carriers are dissolved in ethanol at a stock concentration of 2.5 mM, while all siRNA is reconstituted in nuclease-free water at a 0.25 μg/μL (18.8 μM) concentration. Nanoparticles are formulated by mixing the carriers with siRNA for a period of 30 min in RNase-free phosphate buffer saline (PBS) at pre-specified N/P ratios (N=number of protonable amines in lipid, P=number of phosphate groups in the siRNA). In preparing the lipoplexes, proper dilutions were made such that the volume ratio of ethanol:water was kept constant at 1:20. Minimizing the amount of ethanol is important because it is effective in dissolving lipids, thus inhibiting particle formation. The diameters (as determined by dynamic light scattering) and zeta potentials of all nanoparticles were analyzed using a Malvern Zetasizer instrument at pH=7.4. siRNA encapsulation efficiency was calculated using a RiboGreen fluorescence-based assay from Invitrogen, designed specifically for detection of free RNA at […] wavelengths of 480 and 520 nm, respectively. Nanoparticles were created with all carriers in the library so that final siRNA concentrations were 1.6 μg/mL. A linear standard curve was utilized to calculate the encapsulation efficiencies from signal intensities measured by a SpectraMax microplate reader (Molecular Devices).

[2] = Nanoparticle diameter and polydispersity by dynamic light scattering (Malvern Zetasizer); format: physicochemical; details: for Nanoparticle diameter as measured by dynamic light scattering: siRNA-lipid complexes
Method: as §2

Red blood cells (RBCs) = test: pH-sensitive hemolytic activity of carrier library; format: cell-based, rat; details: all N/P ratios (5, 10, 15) and pHs (7.4, 6.5, 5.4) tested
Method: Hemolytic activity of each carrier was determined to verify the pH-sensitive membrane disruption capabilities of each carrier in the delivery system. Red blood cells (RBCs) extracted from rats were purchased from Innovative Research Inc. (Novi, Mich.) and diluted 1:50 in PBS solutions of pHs=5.4, 6.5, or 7.4. A total of 100 μL of nanoparticles were created at N/P ratios of 5, 10, 15 and then incubated with 100 μL of diluted RBCs at 37° C. for 2 h. Nanoparticles were formulated so that the final amine concentration for all the samples, after mixing with the RBCs, was 150 μM. Multiple pHs were tested to predict if the nanoparticles could disrupt membranes of the endosomal-lysosomal compartments (pH=5-6), without affecting the integrity of the outer cell membrane prior to endocytosis (pH=7.4). The absorbance of each test sample was measured on a SpectraMax spectrophotometer at a wavelength of 540 nm in order to determine the amount of hemoglobin released from the RBCs, due to membrane destabilization, relative to that achieved by a positive control treatment of 1% (v/v) Triton-X100 surfactant during the 2 hour incubation period.

[3] = system: HT29 colon carcinoma cells; test: Cellular uptake of Alexa Fluor 488-siRNA via flow cytometry; format: cell-based, human; details: HT29, N/P=18, 4 h, 100 nM Alexa Fluor 488-siRNA
Method: Flow cytometry was used to investigate the cellular uptake of our delivery system in HT29 colon carcinoma cells. All carriers in the library were formulated into nanoparticles by condensing Alexa Fluor 488-labeled siRNA at the optimal N/P ratio determined by the above luciferase knockdown studies. Approximately 50,000 cancer cells were seeded in 6-well plates and allowed to grow until 30-50% confluence was reached. The cancer cells were transfected with a 100 nM siRNA dose in serum-free media. After 4 h, the transfection media were aspirated and the cells were washed twice with PBS. The cells were then trypsinized, collected, and fixed with 2% paraformaldehyde in PBS, prior to flow cytometric analysis.

Zeta-potential of siRNA-lipid complexes ([1]; pH = 7.4, N/P = 2) | Zeta-potential of siRNA-lipid complexes ([1]; pH = 7.4, N/P = 5) | Zeta-potential of siRNA-lipid complexes ([1]; pH = 7.4, N/P = 8) | Zeta-potential of siRNA-lipid complexes ([1]; pH = 7.4, N/P = 10) | Zeta-potential of siRNA-lipid complexes ([1]; pH = 7.4, N/P = 15) | Polydispersity of siRNA-lipid complexes ([2]; N/P = 2) | Polydispersity of siRNA-lipid complexes ([2]; N/P = 5) | Polydispersity of siRNA-lipid complexes ([2]; N/P = 8) | Polydispersity of siRNA-lipid complexes ([2]; N/P = 10) | Polydispersity of siRNA-lipid complexes ([2]; N/P = 15) | Nanoparticle diameter as measured by dynamic light scattering ([2]; N/P = 2) | Nanoparticle diameter as measured by dynamic light scattering ([2]; N/P = 5) | Nanoparticle diameter as measured by dynamic light scattering ([2]; N/P = 8) | Nanoparticle diameter as measured by dynamic light scattering ([2]; N/P = 10) | Nanoparticle diameter as measured by dynamic light scattering ([2]; N/P = 15) | SMILES | viability at 0.0005 µg/mL (MDA-MB-231 cells) | viability at 0.0005 µg/mL (MDA-MB-231.DR cells) | hemolytic activity relative to Triton X-100 (Red blood cells (RBCs)) | cellular uptake, mean fluorescence intensity (MFI) [3]
 |  |  |  |  |  |  |  |  |  |  |  |  |  |  | CC(=O)O[C@H]1C(=O)[C@@]2(C)[C@H]([C@H](OC(=O)c3ccccc3)[C@]3(O)C[C@H](OC(=O)[C@H](O)[C@@H](NC(=O)c4ccccc4)c4ccccc4)C(C)=C1C3(C)C)[C@]1(OC(C)=O)CO[C@@H]1C[C@@H]2O [PTX, paclitaxel] | 44.6 ± 6.6% | 80.7 ± 2.9% |  | 
−28.35 ± 3.61 mV | 26.89 ± 1.85 mV | 26.03 ± 2.25 mV | 28.59 ± 2.25 mV | 17.15 ± 2.99 mV | 0.298 | 0.233 | 0.140 | 0.184 | 0.180 | 482 ± 40 nm | 185 ± 22 nm | 51 ± 14 nm | 50 ± 12 nm | 48 ± 12 nm | CCCCC/C=C\C/C=C\CCCCCCCC(=O)NC(CS)C(=O)NCCNC(=O)CCN(CCCNCCCCNCCCN)CCC(=O)NCCNC(=O)C(CS)NC(=O)CCCCCCC/C=C\C/C=C\CCCCC (stereo not shown) [SCLn] |  |  | greatest hemolytic activity | 4066±185
